Assay results from patent US20070049564A1 (Wyeth, priority 2005, published 2007).
Converted amounts (≈) assume the structure as drawn. Like-named read-outs stand apart in the source and are kept apart here.

How the values were obtained:
Experiment in all cases: MIC, broth microdilution
E. coli GC 2233 = details: Escherichia coli
S. aureus GC 1131 = details: Staphylococcus aureus
E. faecalis GC 2267 = details: Enterococcus faecalis
E. coli GC 2272 = details: Escherichia coli
E. coli GC 6465 = details: Escherichia coli
E. coli GC 3226 = details: Escherichia coli
S. aureus GC 6467 = details: Staphylococcus aureus
P. aeruginosa GC 2214 = details: Pseudomonas aeruginosa
S. epidermidis GC 4935 = details: Staphylococcus epidermidis
S. aureus GC 6335 = details: Staphylococcus aureus
E. faecium GC 2243 = details: Enterococcus faecium
c. albicans GC 3066 = test system: c. albicans GC 3066
E. coli GC 1073 = details: Escherichia coli
E. coli GC 2271 = details: Escherichia coli
S. aureus GC 6469 = details: Staphylococcus aureus
E. coli GC 2270 = details: Escherichia coli
S. aureus GC 1079 = details: Staphylococcus aureus
E. faecalis GC 2265 = details: Enterococcus faecalis
E. coli GC 2203 = details: Escherichia coli
E. coli GC 4560 = details: Escherichia coli

- MIC (E. coli GC 2233; GC2233, read-out: MINIMAL INHIBITORY CONCENTRATION MIC, Human Serum): > 64 mg/L
- MIC (E. coli GC 2233; GC2233, read-out: MINIMAL INHIBITORY CONCENTRATION MIC, Mouse Serum): > 64 mg/L
- MIC (E. coli GC 2233; GC2233, read-out: MINIMAL INHIBITORY CONCENTRATION MIC, Water): > 64 mg/L
- MIC (S. aureus GC 1131; GC1131, read-out: MINIMAL INHIBITORY CONCENTRATION MIC, Human Serum): 2 mg/L (≈ 3.11 µM)
- MIC (S. aureus GC 1131; GC1131, read-out: MINIMAL INHIBITORY CONCENTRATION MIC, Mouse Serum): 2 mg/L (≈ 3.11 µM)
- MIC (S. aureus GC 1131; GC1131, read-out: MINIMAL INHIBITORY CONCENTRATION MIC, Water): 8 mg/L (≈ 12.4 µM)
- MIC (E. faecalis GC 2267; GC2267, read-out: MINIMAL INHIBITORY CONCENTRATION MIC, Human Serum): 4 mg/L (≈ 6.21 µM)
- MIC (E. faecalis GC 2267; GC2267, read-out: MINIMAL INHIBITORY CONCENTRATION MIC, Mouse Serum): 8 mg/L (≈ 12.4 µM)
- MIC (E. faecalis GC 2267; GC2267, read-out: MINIMAL INHIBITORY CONCENTRATION MIC, Water): 8 mg/L (≈ 12.4 µM)
- MIC (E. coli GC 2272; GC2272, read-out: MINIMAL INHIBITORY CONCENTRATION MIC, Human Serum): 32 mg/L (≈ 49.7 µM)
- MIC (E. coli GC 2272; GC2272, read-out: MINIMAL INHIBITORY CONCENTRATION MIC, Mouse Serum): 32 mg/L (≈ 49.7 µM)
- MIC (E. coli GC 2272; GC2272, read-out: MINIMAL INHIBITORY CONCENTRATION MIC, Water): 64 mg/L (≈ 99.4 µM)
- MIC (E. coli GC 6465; GC6465, read-out: MINIMAL INHIBITORY CONCENTRATION MIC, Human Serum): > 64 mg/L
- MIC (E. coli GC 6465; GC6465, read-out: MINIMAL INHIBITORY CONCENTRATION MIC, Mouse Serum): > 64 mg/L
- MIC (E. coli GC 6465; GC6465, read-out: MINIMAL INHIBITORY CONCENTRATION MIC, Water): > 64 mg/L
- MIC (E. coli GC 3226; GC3226, read-out: MINIMAL INHIBITORY CONCENTRATION MIC, Human Serum): > 64 mg/L
- MIC (E. coli GC 3226; GC3226, read-out: MINIMAL INHIBITORY CONCENTRATION MIC, Mouse Serum): > 64 mg/L
- MIC (E. coli GC 3226; GC3226, read-out: MINIMAL INHIBITORY CONCENTRATION MIC, Water): > 64 mg/L
- MIC (S. aureus GC 6467; GC6467, read-out: MINIMAL INHIBITORY CONCENTRATION MIC, Human Serum): 4 mg/L (≈ 6.21 µM)
- MIC (S. aureus GC 6467; GC6467, read-out: MINIMAL INHIBITORY CONCENTRATION MIC, Mouse Serum): 4 mg/L (≈ 6.21 µM)
- MIC (S. aureus GC 6467; GC6467, read-out: MINIMAL INHIBITORY CONCENTRATION MIC, Water): 8 mg/L (≈ 12.4 µM)
- MIC (P. aeruginosa GC 2214; GC2214, read-out: MINIMAL INHIBITORY CONCENTRATION MIC, Human Serum): > 64 mg/L
- MIC (P. aeruginosa GC 2214; GC2214, read-out: MINIMAL INHIBITORY CONCENTRATION MIC, Mouse Serum): > 64 mg/L
- MIC (P. aeruginosa GC 2214; GC2214, read-out: MINIMAL INHIBITORY CONCENTRATION MIC, Water): > 64 mg/L
- MIC (S. epidermidis GC 4935; GC4935, read-out: MINIMAL INHIBITORY CONCENTRATION MIC, Human Serum): 8 mg/L (≈ 12.4 µM)
- MIC (S. epidermidis GC 4935; GC4935, read-out: MINIMAL INHIBITORY CONCENTRATION MIC, Mouse Serum): 8 mg/L (≈ 12.4 µM)
- MIC (S. epidermidis GC 4935; GC4935, read-out: MINIMAL INHIBITORY CONCENTRATION MIC, Water): 16 mg/L (≈ 24.9 µM)
- MIC (S. aureus GC 6335; GC6335, read-out: MINIMAL INHIBITORY CONCENTRATION MIC, Human Serum): 8 mg/L (≈ 12.4 µM)
- MIC (S. aureus GC 6335; GC6335, read-out: MINIMAL INHIBITORY CONCENTRATION MIC, Mouse Serum): 8 mg/L (≈ 12.4 µM)
- MIC (S. aureus GC 6335; GC6335, read-out: MINIMAL INHIBITORY CONCENTRATION MIC, Water): 8 mg/L (≈ 12.4 µM)
- MIC (E. faecium GC 2243; GC2243, read-out: MINIMAL INHIBITORY CONCENTRATION MIC, Human Serum): 2 mg/L (≈ 3.11 µM)
- MIC (E. faecium GC 2243; GC2243, read-out: MINIMAL INHIBITORY CONCENTRATION MIC, Mouse Serum): 2 mg/L (≈ 3.11 µM)
- MIC (E. faecium GC 2243; GC2243, read-out: MINIMAL INHIBITORY CONCENTRATION MIC, Water): 4 mg/L (≈ 6.21 µM)
- MIC (c. albicans GC 3066; Candida albicans, GC3066, read-out: MINIMAL INHIBITORY CONCENTRATION MIC): > 64 mg/L
- MINIMAL INHIBITORY CONCENTRATION MIC (c. albicans GC 3066; Human Serum): >64 UG/ML
- MINIMAL INHIBITORY CONCENTRATION MIC (c. albicans GC 3066; Mouse Serum): >64 UG/ML
- MIC (E. coli GC 1073; GC1073, read-out: MINIMAL INHIBITORY CONCENTRATION MIC, Human Serum): > 64 mg/L
- MIC (E. coli GC 1073; GC1073, read-out: MINIMAL INHIBITORY CONCENTRATION MIC, Mouse Serum): > 64 mg/L
- MIC (E. coli GC 1073; GC1073, read-out: MINIMAL INHIBITORY CONCENTRATION MIC, Water): > 64 mg/L
- MIC (E. coli GC 2271; GC2271, read-out: MINIMAL INHIBITORY CONCENTRATION MIC, Human Serum): 64 mg/L (≈ 99.4 µM)
- MIC (E. coli GC 2271; GC2271, read-out: MINIMAL INHIBITORY CONCENTRATION MIC, Mouse Serum): 64 mg/L (≈ 99.4 µM)
- MIC (E. coli GC 2271; GC2271, read-out: MINIMAL INHIBITORY CONCENTRATION MIC, Water): > 64 mg/L
- MIC (S. aureus GC 6469; GC6469, read-out: MINIMAL INHIBITORY CONCENTRATION MIC, Human Serum): 2 mg/L (≈ 3.11 µM)
- MIC (S. aureus GC 6469; GC6469, read-out: MINIMAL INHIBITORY CONCENTRATION MIC, Mouse Serum): 2 mg/L (≈ 3.11 µM)
- MIC (S. aureus GC 6469; GC6469, read-out: MINIMAL INHIBITORY CONCENTRATION MIC, Water): 4 mg/L (≈ 6.21 µM)
- MIC (E. coli GC 2270; GC2270, read-out: MINIMAL INHIBITORY CONCENTRATION MIC, Human Serum): > 64 mg/L
- MIC (E. coli GC 2270; GC2270, read-out: MINIMAL INHIBITORY CONCENTRATION MIC, Mouse Serum): > 64 mg/L
- MIC (E. coli GC 2270; GC2270, read-out: MINIMAL INHIBITORY CONCENTRATION MIC, Water): > 64 mg/L
- MIC (S. aureus GC 1079; GC1079, read-out: MINIMAL INHIBITORY CONCENTRATION MIC, Human Serum): 2 mg/L (≈ 3.11 µM)
- MIC (S. aureus GC 1079; GC1079, read-out: MINIMAL INHIBITORY CONCENTRATION MIC, Mouse Serum): 2 mg/L (≈ 3.11 µM)
- MIC (S. aureus GC 1079; GC1079, read-out: MINIMAL INHIBITORY CONCENTRATION MIC, Water): 4 mg/L (≈ 6.21 µM)
- MIC (E. faecalis GC 2265; GC2265, read-out: MINIMAL INHIBITORY CONCENTRATION MIC, Human Serum): 4 mg/L (≈ 6.21 µM)
- MIC (E. faecalis GC 2265; GC2265, read-out: MINIMAL INHIBITORY CONCENTRATION MIC, Mouse Serum): 8 mg/L (≈ 12.4 µM)
- MIC (E. faecalis GC 2265; GC2265, read-out: MINIMAL INHIBITORY CONCENTRATION MIC, Water): 8 mg/L (≈ 12.4 µM)
- MIC (E. coli GC 2203; GC2203, read-out: MINIMAL INHIBITORY CONCENTRATION MIC, Human Serum): > 64 mg/L
- MIC (E. coli GC 2203; GC2203, read-out: MINIMAL INHIBITORY CONCENTRATION MIC, Mouse Serum): > 64 mg/L
- MIC (E. coli GC 2203; GC2203, read-out: MINIMAL INHIBITORY CONCENTRATION MIC, Water): > 64 mg/L
- MIC (E. coli GC 4560; GC4560, read-out: MINIMAL INHIBITORY CONCENTRATION MIC, Human Serum): 1 mg/L (≈ 1.55 µM)
- MIC (E. coli GC 4560; GC4560, read-out: MINIMAL INHIBITORY CONCENTRATION MIC, Mouse Serum): 1 mg/L (≈ 1.55 µM)
- MIC (E. coli GC 4560; GC4560, read-out: MINIMAL INHIBITORY CONCENTRATION MIC, Water): 2 mg/L (≈ 3.11 µM)
Compound: COC(=O)N(CC(=O)Nc1cc(N(C)C)c2c(c1O)C(=O)C1=C(O)[C@]3(O)C(=O)C(C(N)=O)=C(O)[C@@H](N(C)C)[C@@H]3C[C@@H]1C2)C(C)(C)C [Example 60, methyl 2-{[(5aR,6aS,7S,10aS)-9-(aminocarbonyl)-4,7-bis(dimethylamino)-1,8,10a,11-tetrahydroxy-10,12-dioxo-5,5a,6,6a,7,10,10a,12-octahydrotetracen-2-yl]amino}-2-oxoethyl(tert-butyl)carbamate]
